Measurements published in PMC2409523, “Hormonal impact of the 17α-hydroxylase/C17,20-lyase inhibitor abiraterone acetate (CB7630) in patients with prostate cancer” (British Journal of Cancer, 2004).
Values joined by “and” are separate entries in the source; they are usually repeats but may differ in a detail not shown here. Identical values can stand only once.

Key:
testosterone synthesis [1] = assay: Study A: single dose study in castrate males with prostate cancer, serum hormone levels; assay type: in vivo, human
Procedure: Significant suppression was defined as either testosterone <0.14 nmol l^−1 in individual patients with a pretreatment value of <0.6 nmol l^−1 or a ⩾75% reduction in individual patients with a pretreatment value of ⩾0.6 nmol l^−1.
This was a single-centre, open-label, phase one, single-dose study in which sequential cohorts of three medically or surgically castrate patients were to receive treatment at five dose levels: starting at 10 mg and increasing to 30, 100, 200 and 500 mg. […] A confirmatory testosterone level of between 0.2 and 2.0 nmol l^−1 was also required.
(§1) Serum samples for endocrine analysis were obtained at 0, 2, 4, 8 and 24 h on a single day in the week prior to treatment commencement and then on Days 1, 2, 3, 4 and 7. As the duration of testosterone suppression was longer than originally anticipated, additional samples were added on Days 10, 14 and 21. The serum samples were analysed for testosterone, cortisol, 17 α-hydroxyprogesterone (17HP), androstenedione, LH and follicle-stimulating hormone (FSH) using commercially available kits. However, the DPC Coat-a-count kit for testosterone was sensitised using a larger volume of sample/standard and extension of the standard curve. […] All endocrine analyses were conducted by radioimmunoassay except for LH and FSH, which were by enzyme immunoassay.

testosterone synthesis [2] = assay: Study B: single dose study in noncastrate males with prostate cancer, serum hormone levels; assay type: in vivo, human
Procedure: This was a single dose study in noncastrate males (testosterone level ⩾9.0 nmol l^−1) to determine the dose of abiraterone acetate that was sufficient to cause suppression of testosterone synthesis to castrate levels (⩽2.0 nmol l^−1).
This was a single-centre, open-label, phase one, single-dose study in which sequential cohorts of three noncastrate patients were to be treated at four dose levels: 200, 500, 650 and 800 mg. The starting dose of 200 mg was chosen when the results of study A were available.
All patients were required to have a normal testosterone level prior to study entry (i.e. ⩾9.0 nmol l^−1) as well as normal gonadotrophin levels (Luteinising Hormone (LH) ⩽13 IU l^−1).
as §1

[3] = Pharmacokinetics in patient plasma (LC-MS); assay type: in vivo, human; conditions: for Mean AUC: across all three studies
Procedure: Sample extracts were analysed by a fully validated liquid chromatography mass spectrometry method. The instrument consisted of Wisp Model 717 autosampler including a Model 600MS system controller with a quaternary U6K LC pump. A Finnigan MAT TSQ 700 triple quadrupole mass spectrometer was used as the detection system, together with Finnigan MAT ICIS and ICL software for data capture and processing (ThermoQuest Ltd, San Jose, CA, USA). The separation of analytes was performed on a Supelcosil LC-ABZ (5 μm, 250 × 4.6 mm) analytical column protected by a guard column (Supelco, Bellefonte, PA, USA). The mobile phase consisted of 570 ml of 20 mM ammonium acetate solution, 100 ml tetrahydrofuran and 1330 ml acetonitrile and was delivered at a flow rate of 1 ml min^−1 throughout the system. Column eluant was subjected to electrospray ionisation and monitored by selected ion monitoring (SIM) of protonated pseudo-molecular ions of authentic standards of abiraterone acetate and abiraterone, and GP488 (an analogue of abiraterone used as internal standard). For SIM, the scan width was 0.25 and the total scan time was 2.99 s. Also, heated capillary temperature=250°C, spray voltage=4.5 kV, collision offset=−49.9 V and electron multiplier voltage=1200 eV. Samples were extracted as follows: 50 μl of acetonitrile and 40 μl of 50 μM GP488 internal standard were added to 500 μl of patient plasma. […] The dried residue was reconstituted by vortexing in 150 μl of acetonitrile and transferred into autosampler vials. Aliquots (100 μl) of these samples were injected onto the LC column. […] A comprehensive PK profile (Cmax, Tmax, T1/2α T1/2 and Kabs) was determined for each patient. Pharmacokinetic parameters were evaluated using WinNonLin Software® and were conducted at The Institute of Cancer Research (Sutton). Blood was sampled for analysis of abiraterone concentration prior to drug administration and at the following times on Day 1: 30 min, 1, 2, 4, 6, 8 and 12 h. In the multidose study, samples were also drawn prior to treatment on Days 2, 3, 4, 7, 8, 9, 10, 11 and 14 with additional samples on Days 21 and 28. Samples (7 ml) were collected into vacutainer tubes (BD, Rutherford, NJ, USA) containing EDTA and immediately centrifuged to separate the plasma. At least 2 ml of plasma was transferred into polypropylene tubes (NUNC) and frozen at –20° until analysis.

[4] = molecular target: 17α-hydroxylase/C17,20-lyase; design: method as in Barrie et al, 1997; Potter et al, 1995; conditions: inhibition of the 17α-hydroxylase/C17,20-lyase enzyme; ref Barrie et al, 1997; Potter et al, 1995; read-out: Kiapp; cited from earlier work
[5] = Safety and tolerability in the three phase one trials; assay type: in vivo, human
Procedure: Prior to the first dose of therapy a complete history, physical examination and assessment of performance status was performed on all patients. Full-blood count, electrolytes and creatinine, liver function, urinanalysis, electrocardiograph and chest X-ray were obtained from all patients. The ECG was repeated 6 h after dosing. On the day of therapy heart rate, blood pressure and temperature were recorded every 4 h and then daily at the time of blood sampling. Thereafter, full-blood count, electrolytes, creatinine and liver function were re-evaluated on Days 2 and 7. Toxicity was recorded using the NCI-CTG Expanded Common Toxicity Criteria V1.

cortisol synthesis = assay: Short Synacthen test in Study C; assay type: in vivo, human
Procedure: The schedule sampling differed slightly with samples removed at 0930 and 1730 on the day of treatment and thereafter in the morning on Days 2, 3, 4, 7, 8, 9, 10, 11, 14, 21 and 28. In Study C, a short Synacthen test was also performed prior to therapy and again around Day 11.

testosterone synthesis [6] = assay: Study C: multiple dose study (Days 1–12) in noncastrate males with prostate cancer, serum hormone levels; assay type: in vivo, human
Procedure: If this level of suppression was achieved, then it was planned to escalate the doses still higher to establish whether further suppression of testosterone was possible. […] This was a three-centre, open-label, phase one, multidose study in which sequential cohorts of three noncastrate patients were to receive treatment with abiraterone daily for 12 days. […] The starting dose of 500 mg was based upon the data from the single-dose studies. It was planned that a dose level would be expanded to six patients if any patient experienced toxicity ⩾ Grade III or if there was a significant suppression of serum cortisol in one patient (defined as per Study B above). All patients were followed for 28 days for any sign of toxicity. […] The schedule sampling differed slightly with samples removed at 0930 and 1730 on the day of treatment and thereafter in the morning on Days 2, 3, 4, 7, 8, 9, 10, 11, 14, 21 and 28. In Study C, a short […] test was also performed prior to therapy and again around Day 11.

17α hydroxylation = tested on: 17α hydroxylation; design: method as in Barrie et al, 1994; Dowsett et al, 1988; conditions: preclinical studies, correlative evidence of inhibition of 17α hydroxylation; ref Barrie et al, 1994; Dowsett et al, 1988; cited from earlier work
[7] = design: method as in Barrie et al, 1994; Dowsett et al, 1988; conditions: rodent model, intraperitoneal administration; ref Barrie et al, 1994; Dowsett et al, 1988; cited from earlier work
[8] = single oral dose 500 mg, noncastrate patients
[9] = 500 mg daily Days 1–12, noncastrate patients

## C[C@]12CC[C@H](O)CC1=CC[C@@H]1[C@@H]2CC[C@]2(C)C(c3cccnc3)=CC[C@@H]12 [abiraterone, 17-(3-pyridyl)androsta-5,16-dien-3β-ol]
Testosterone synthesis [1]; one patient at 500 mg, Day 1, baseline 409 nmol l^−1, felt inconsistent with suppression due to drug
  serum cortisol level: 81 nmol/L
Testosterone synthesis [1]; single oral dose 200 mg, one castrate patient, within the first 24 h
  reduction in testosterone: 75%
Testosterone synthesis [1]; single oral dose 500 mg, castrate males
  levels of 17-hydroxyprogesterone: no corresponding reduction
Testosterone synthesis [1]; single oral dose 500 mg, castrate males, around Day 2
  mean androstenedione levels: reduction in mean androstenedione levels
Testosterone synthesis [1]; single oral dose 500 mg, first cohort of three castrate patients, target <0.14 nmol l^−1 or ⩾75% reduction
  patients with reduction in testosterone to the target level: all three patients
Testosterone synthesis [1]; single oral dose 500 mg, three additional castrate patients
  patients with target testosterone suppression: one of these patients
Testosterone synthesis [1]; single oral dose 500 mg, two of the three castrate patients, post-therapy
  days over which testosterone suppression was sustained: 2 to 5 days
Testosterone synthesis [1]; single oral dose 10, 30 and 100 mg, castrate males
  effect on testosterone: no consistent effect
Testosterone synthesis [2]; single oral dose 200 mg, first noncastrate patient
  testosterone suppression: No testosterone suppression
Testosterone synthesis [2]; single oral dose 500 mg, all three noncastrate patients
  reduction in testosterone level from baseline: more than 50%
Testosterone synthesis [2]; [8]
  recovery of LH to pretreatment levels: ≤ 10 days
  recovery of testosterone to pretreatment levels after nadir: 6 to 9 days
  time of testosterone nadir: second day after therapy
Testosterone synthesis [2]; single oral dose 500 mg, noncastrate patients, maximal on Day 3
  rise in LH levels: 47–75%
[3]; all doses greater than or equal to 200 mg
  plasma levels of abiraterone: Detectable levels
[3]; dose 200 mg
  Mean AUC: 0.31 µM·h
[3]; dose 500 mg
  Mean AUC: 1.22 µM·h
[3]; dose 800 mg
  Mean AUC: 5.6 µM·h
[4]
  Ki: 0.5 nM

## CC(=O)O[C@H]1CC[C@@]2(C)C(=CC[C@@H]3[C@@H]2CC[C@]2(C)C(c4cccnc4)=CC[C@@H]32)C1 [abiraterone acetate]
Testosterone synthesis [1]; single dose of 500 mg, castrate males
  patients with suppression of testosterone levels to <0.14 nmol l^−1: four out of six
Testosterone synthesis [2]; single oral dose 200 mg, noncastrate
  LH levels: did not alter
Testosterone synthesis [2]; single oral dose 500 mg, noncastrate patients, Day 3, each case
  level of testosterone relative to baseline: less than 50%
Testosterone synthesis [2]; single oral dose, noncastrate patients
  change in cortisol level: No change
[5]; all three trials
  grade three or four toxic events: no grade three or four toxic events
  resting heart rate or blood pressure: No alteration
  serious adverse events: no serious adverse events attributable to treatment
  tolerability: very well tolerated
[5]; any dose level or schedule evaluated
  haematologic or biochemical effects: No haematologic or biochemical effects
[5]; no relation to dose or schedule apparent
  systemic effects reported by individual patients: Headache, hot flushes, a mild increase in abdominal and testicular pain, and a transient depression in mood (all grade II)
Cortisol synthesis; 500 mg daily, all three patients, by Day 11
  response to Synacthen: abnormal response
Cortisol synthesis; 500 mg daily, by Day 11, baseline 294.3 nmol l^−1
  mean change in cortisol in response to Synacthen: 42 nmol/L
Cortisol synthesis; 500 mg daily, by Day 11, baseline +77%
  mean change in cortisol in response to Synacthen (percent): +10%
Cortisol synthesis; 800 mg daily, all three patients, Day 11
  cortisol response to the short Synacthen test: abnormal
Cortisol synthesis; 800 mg daily, by Day 11, baseline 385 nmol l^−1
  mean change in cortisol levels in response to Synacthen: 65.3 nmol/L
Cortisol synthesis; 800 mg daily, by Day 11, baseline 120%
  mean change in cortisol levels in response to Synacthen (percent): 23%
Testosterone synthesis [6]; 500 mg daily Days 1–12, all three noncastrate patients
  testosterone level reached: ≤ 2.0 nmol/L
Testosterone synthesis [6]; [9]
  duration of substantial testosterone suppression: up to 9 days
  serum cortisol levels: remained within normal limits
  time of maximal testosterone suppression: 1 to 3 days
Testosterone synthesis [6]; 500 mg daily Days 1–12, three noncastrate patients
  target testosterone level of ⩽0.7 nmol l^−1: did not reach the target level
Testosterone synthesis [6]; 800 mg daily Days 1–12, first patient
  day on which target testosterone suppression (⩽0.7 nmol l^−1) was obtained: 1 days
Testosterone synthesis [6]; 800 mg daily, final patient, by Day 2
  testosterone level: 1.7 nmol/L
Testosterone synthesis [6]; 800 mg daily, final patient, from Day 3
  rise in LH: two-fold rise
Testosterone synthesis [6]; 800 mg daily, final patient, from Day 4
  testosterone level: > 2.0 nmol/L
Testosterone synthesis [6]; 800 mg daily, first patient
  testosterone levels for the duration of treatment: ≤ 2.0 nmol/L
Testosterone synthesis [6]; 800 mg daily, first patient, from Day 3
  increase in LH: three-fold increase
Testosterone synthesis [6]; 800 mg daily, first patient, then reversed with rising LH
  duration of target testosterone suppression: 3 days
Testosterone synthesis [6]; 800 mg daily, second patient
  day on which target testosterone suppression (⩽0.7 nmol l^−1) was reached: 4 days
Testosterone synthesis [6]; 800 mg daily, second patient, Day 7, otherwise below target level
  testosterone level: 0.77 nmol/L
Testosterone synthesis [6]; 800 mg days 1–12, two out of three patients, overcame suppression within 3 days
  increase of Luteinising Hormone (LH) levels: two- to three-fold
Testosterone synthesis [6]; 800 mg, repeat dose
  effect on FSH levels: no effect
Testosterone synthesis [6]; multidose study, evening of Day 1, three patients
  fall of evening cortisol from baseline evening cortisol: 60% and 71% and 69%
Testosterone synthesis [6]; repeat dose studies, noncastrate males
  dose required to maintain testosterone suppression to target levels: at least 800 mg
17α hydroxylation
  weight of the ventral prostate: reduced weight of the ventral prostate
[3]; at the dose levels studied, all three studies combined
  saturation of drug absorption: no evidence of saturation of drug absorption
[7]
  deacetylation: rapid deacetylation
